Measurements from publication PMC4015874, “Effects of Allium victorialis leaf extracts and its single compounds on aldose reductase, advanced glycation end products and TGF-β1 expression in mesangial cells” (BMC Complementary and Alternative Medicine, 2013).
Entries after “also recorded” stand apart in the source; their conditions may differ.

Tests used:
[1] = system: AGEs formation; experiment: AGEs formation assay (BSA with fructose and glucose, fluorescence); assay type: biochemical; details: BSA with 0.2 M fructose and glucose, 37°C, 7 days
Protocol: AGEs formation assay was performed as previously described. Bovine serum albumin (BSA, 10 mg/ml, Sigma-Aldrich) in 50mM phosphate buffer (pH 7.4) with containing 0.02% sodium azide to prevent bacterial growth was added to 0.2 M fructose and glucose. The reaction mixture was then mixed with compounds or aminoguanidine (AG, Sigma-Aldrich). After incubating at 37°C for 7 days, the fluorescent reaction products were assayed on a spectrofluorometric detector (BIO-TEK, Synergy HT, Ex: 350 nm/Em: 450 nm). AGEs assay was performed in quadruplicate.

[2] = biological target: T1, crude rat lens AR (aldose reductase) (Rattus norvegicus, UniProt P07943); experiment: Rat lens AR activity; assay type: biochemical
T1 construct: the supernatant was used as crude rat lens AR; from tissue; host or cells: lens of 8-week-old Sprague-Dawley rats (supernatant of the homogenate)
Protocol: AR activity was measured as described previously. All animal procedures were approved by the Korea Institute of Oriental Medicine Institutional Animal Care Committee on animal care at our institute and conducted according to institutional guidelines. […] The homogenate was centrifuged at 14,000 rpm for 30 min, and the supernatant was used as crude rat lens AR. […] The reaction was initiated by the addition of NADPH at 37°C and stopped by the addition of 0.15 ml of 0.5 N HCl. Next, 0.5 ml of 6 M NaOH containing 10 mM imidazole was added, and the solution was heated at 60°C for 15 min to convert NADP to a fluorescent product.

[3] = biological target: T2, human RAGE (hRAGE) (Homo sapiens, UniProt Q15109); experiment: Live cell-based AGE-BSA/RAGE binding in hRAGE-overexpressing cells; details: hRAGE-overexpressing MMCs, Alexa Fluor 488-labeled AGE-BSA, 6 h
T2 construct: expressed in transfected cells; host or cells: mouse kidney mesangial cells (MMCs) overexpressing hRAGE
Protocol: AGE-BSA/RAGE binding in the cells was determined as described previously. Briefly, Alexa 488 labeling of AGE-BSA was performed using the Alexa Fluor® 488 protein labeling kit (Molecular Probes, Eugene, OR). For the binding assay, human RAGE-overexpressing cells (1×10^4) were seeded onto a 96-well assay plate with a clear bottom lid and black plate (Corning, NY) and incubated with serum-free media for 24 h. Before binding, 3% BSA was added for 30 min to block non-specific binding. Cells were treated with 5 μg of Alexa Fluor 488-labeled AGE-BSA in a total volume of 100 μl serum-free medium and incubated in the dark for 6 h in a 5% CO2 humidified atmosphere at 37°C. Compounds were added after the addition of AGE-BSA-Alexa Fluor 488 to hRAGE-overexpressing cells. The non-specific binding of AGE-BSA-Alexa Fluor 488 to cell surface proteins other than hRAGE was compared by incubating cells with untreated cells (blank). After binding, 100 μl Opti-MEM were added to the washed plates, and the plates were then analyzed using a microtiter plate reader (Bio-Tek, Winooski, VT) with excitation and emission wavelengths of 485 and 528 nm, respectively.

[4] = system: secreted TGF-β1 in mouse kidney mesangial cells (MMCs); experiment: High glucose-induced TGF-β1 secretion in MMCs (ELISA); assay type: cell-based; details: high glucose 48 h, 10 μM compound, ELISA of medium
Protocol: Mouse kidney mesangial cells (SV40 MES13, MMC) were obtained from the American Type Culture Collection (#CRL-1927, Rockville, MD) and cultured in Dulbecco's modified Eagle's medium:F-12 (3:1) supplemented with 14 mM HEPES, penicillin 100 U/ml, streptomycin 100 μg/ml, and 5% fetal bovine serum. Cells were routinely grown to confluence in a humidified 37°C, 5% CO2 incubator. The levels of TGF-β1 in the medium were determined as described previously. […] This medium was then harvested and TGF-β1 was activated by treatment with 1 N HCl (0.1 ml/0.5 ml of conditioned media) for 10 min at room temperature, then 0.1 ml 1.2 N NaOH/0.5 M HEPES was added. Quantikine mouse TGF-β1 ELISA (R&D systems, Minneapolis, MN) was performed according to the manufacturer’s protocol, and the TGF-β1 levels were normalized to those of total protein.

[5] = system: TGF-β1 mRNA expression in mouse kidney mesangial cells (MMCs); experiment: High glucose-induced TGF-β1 mRNA expression in MMCs (RT-PCR); assay type: cell-based; details: high glucose 48 h, 10 μM compound
Protocol: Mouse kidney mesangial cells (SV40 MES13, MMC) were obtained from the American Type Culture Collection (#CRL-1927, Rockville, MD) and cultured in Dulbecco's modified Eagle's medium:F-12 (3:1) supplemented with 14 mM HEPES, penicillin 100 U/ml, streptomycin 100 μg/ml, and 5% fetal bovine serum. Cells were routinely grown to confluence in a humidified 37°C, 5% CO2 incubator.
Total cellular RNA was extracted with TRIzol (Invitrogen, Carlsbad, CA), quantified by measuring the absorbance at 260 nm, and stored at -80°C until analysis. The expression of TGF-β1 and GAPDH mRNAs was detected by RT-PCR analysis. The extracted RNA (1 μg) was subjected to a reverse transcriptase reaction with the Maxime RT premix (Intron, Daejeon, Korea) at 42°C for 60 min and 72°C for 10 min. Subsequently, semi-quantitative PCR was performed with Accupower® PCR premix (Intron, Daejeon, Korea). The primer sequences were as follows: mouse TGF-β1 (sense) 5’- TGAACCAAGGAGACGGAATACAGG -3’, (anti-sense) 5'- GCCATGAGGAGCAGGAAGGG -3’ and mouse GAPDH (sense) 5’- ACGGCAAATTCAACGGCACAG -3’, (anti-sense) 5’- AGACTCCACGACATACTCAGCAC -3’. Aliquots of PCR products were electrophoresed on 1.2% agarose gels and visualized after ethidium bromide staining.

T2 sequence (Q15109 23-404): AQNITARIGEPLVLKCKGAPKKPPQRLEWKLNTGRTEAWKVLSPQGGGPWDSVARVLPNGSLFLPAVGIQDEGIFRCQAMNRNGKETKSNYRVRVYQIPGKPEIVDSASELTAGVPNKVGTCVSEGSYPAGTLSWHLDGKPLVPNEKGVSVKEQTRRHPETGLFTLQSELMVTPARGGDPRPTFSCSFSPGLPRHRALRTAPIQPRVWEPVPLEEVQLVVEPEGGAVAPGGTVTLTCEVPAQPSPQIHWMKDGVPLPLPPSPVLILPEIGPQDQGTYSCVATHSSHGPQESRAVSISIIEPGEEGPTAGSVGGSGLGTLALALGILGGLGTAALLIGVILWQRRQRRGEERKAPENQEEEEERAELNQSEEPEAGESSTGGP

Compound	IC50 [1] [µM]	IC50 ([2]; DL-glyceraldehyde substrate) [µM]	AR inhibitory potency compared with positive control TMG [2]	also measured
N=C(N)NN [Aminoguanidine, aminoguanidine, reference compound]	1030 ± 70			AGEs IC50 [1]: 76.47 ± 4.81 µg/mL
C[C@@H]1O[C@@H](Oc2c(-c3ccc(O)c(O)c3)oc3cc(O)cc(O)c3c2=O)[C@H](O)[C@H](O)[C@H]1O [Compound 4, quercitrin]	4.2 ± 0.04	0.17 ± 0.1	significantly more potent	Inhibition of AGE-RAGE binding [3]: significantly inhibited; Inhibition of AGE-RAGE binding ([3]; listed as quercitrin): disrupted AGE-RAGE binding in a concentration-dependent manner
O=c1c(O)c(-c2ccc(O)c(O)c2)oc2cc(O)cc(O)c12 [Compound 6, quercetin]	27.1 ± 0.11		significantly more potent	
O=C(O)C=Cc1ccc(O)cc1 [Compound 7, 4-hydroxycinnamic acid]	9.92 ± 0.11	> 50		
COc1cc(/C=C/C(=O)O)ccc1O [Compound 8, ferulic acid]	7.5 ± 0.2	> 50		Inhibition of high glucose-induced TGF-β1 secretion [4]: significantly reduced; also recorded: reduces; Inhibition of high glucose-induced TGF-β1 mRNA expression [5]: greatest inhibitory effect; Inhibition of high glucose-induced TGF-β1 mRNA expression ([5]; listed as ferulic acid): significantly reduced; also recorded: reduces
O=C(O)CC1(CC(=O)O)CCCC1 [Tetramethyleneglutaric acid, 3,3-tetramethyleneglutaric acid, reference compound]		5.07 ± 0.06		AR IC50 ([2]; DL-glyceraldehyde substrate): 0.94 ± 0.01 µg/mL

More lines, main results first:

IC50 [1] [µM]	IC50 ([2]; DL-glyceraldehyde substrate) [µM]	Compound	AR inhibitory potency compared with positive control TMG [2]	also measured
> 100	> 50	O=c1c(O[C@@H]2O[C@H](CO)[C@@H](O)[C@H](O)[C@H]2O)c(-c2ccc(O[C@@H]3O[C@H](CO)[C@@H](O)[C@H](O)[C@H]3O)cc2)oc2cc(O[C@@H]3O[C@H](CO)[C@@H](O)[C@H](O)[C@H]3O)cc(O)c12 [Compound 1, Kaempferol 3,7,4’-O-β-D-triglucopyranoside]		
56.4 ± 1.39	> 50	O=c1c(O[C@@H]2O[C@H](CO)[C@@H](O)[C@H](O)[C@H]2O)c(-c2ccc(O)cc2)oc2cc(O[C@@H]3O[C@H](CO)[C@@H](O)[C@H](O)[C@H]3O)cc(O)c12 [Compound 2, Kaempferol 3,7-O-β-D-diglucopyranoside]		
59.7 ± 1.22	9.77 ± 0.33	O=c1c(O[C@@H]2O[C@H](CO)[C@@H](O)[C@H](O)[C@H]2O)c(-c2ccc(O[C@@H]3O[C@H](CO)[C@@H](O)[C@H](O)[C@H]3O)cc2)oc2cc(O)cc(O)c12 [Compound 3, kaempferol 3,4’-O-β-D-diglucopyranoside]		
36 ± 1.4	1.1 ± 0.63	O=c1c(O)c(-c2ccc(O)cc2)oc2cc(O)cc(O)c12 [Compound 5, kaempferol]	significantly more potent	
